The test system of one data set is TZM-bl cell line. Format: cell-based. As to conditions: for % Cell Viability: 1.0 μM, uninfected TZM-bl, CellTiter-Blue, Table 4. Here is the method:
(§1) In particular, the tables show antiretroviral activity as percent inhibition of HIV-1 infectivity at 1 μM. In brief, this assay uses the TZM-bl reporter cell line, which carries a stable copy of the HIV-1 LTR coupled to luciferase. Cells are infected with HIV-1NL4-3 in the presence and absence of each compound, and luciferase activity is measured 48 h later. This assay measures early events in the HIV-1 life cycle, including viral entry, reverse transcription, nuclear entry and integration, and viral transcription. All assays include control cells infected with Nef-defective HIV-1, which replicates at 30-50% of wild-type in this system. Results are normalized to percent inhibition relative to DMSO-treated control cells infected with wild-type HIV-1 (0% inhibition) and DMSO-treated cells infected with Nef-defective HIV-1 (100% of the Nef-dependent effect)—see column 3. In addition, cell viability is measured in the TZM-bl cell line in the presence of each test compound and in the absence of HIV-1 infection, using the Cell Titer Blue cell viability assay (Promega; column 4).
For orientation: The colour change of resazurin is a common sign of viable cells or microbes.

The target of a further data set is HIV-1 NefNL4-3 (Human immunodeficiency virus type 1 group M subtype B, UniProt P03406, A33V/T15A/T51N/V11I). In words: Surface plasmon resonance binding to recombinant full-length Nef (NL4-3). As to conditions: for Nef NL4-3 Binding, SPR 1:1 or 2-site fitting KD1: 1:1 Langmuir fit where the KD2 cell says '1 to 1 fitting', else 2-site fit. Background: SPR reads the build-up and loss of mass on a sensor chip optically.

The subject of a further data set is HIV-1NL4-3. In words: HIV-1 infectivity assay in TZM-bl reporter cell line (LTR-luciferase, 48 h). Particulars: Human immunodeficiency virus 1, TZM-bl, 48 h, Table 1; TZM-bl cells, 1 μM, 48 h; 100% = Nef-defective HIV-1; read-out: HIV-1 Infectivity % Inhibition Norm. to Δ-Nef @ 1 μM. It is filed as cell-based. Here is the method: as §1
Setting [1] is: Table 2, uninfected TZM-bl cells, 1 μM, Cell Titer Blue.
The mark [2] stands for this setting: read-out: Nef NL4-3 Binding, SPR 1:1 or 2-site fitting KD2, Table 1, 2-site fit, second component.
The mark [3] stands for this setting: read-out: Nef NL4-3 Binding, SPR 1:1 or 2-site fitting KD1.
Where [4] appears, read: Table 1, 2-step induced-fit model, read-out: Nef NL4-3 Binding, SPR 2-state fitting KD.
Where [5] appears, read: Nef NL4-3 Binding, SPR 1:1 or 2-site fitting KD2, Table 1, 2-site fit, second component.

pKd: −log10 of the molar value. Like-named read-outs stand apart in the source and are kept apart here.

For orientation: inhibition means the percentage by which the read-out fell short of the control.

Regarding `Fc1ccc(-c2nn(-c3cc(C(F)(F)F)n[nH]3)cc2CCc2ccccc2)cc1` [Compound I-1501], in the data set on TZM-bl cell line (setting [1]), the “Percent Viability @ 1 μM (TZM-bl cells)” value came out at 102.5%.

Turning to `Oc1c(CCc2ccc(F)cc2)c(-c2ccccc2Cl)nn1-c1nc2ccccc2[nH]1` [Compound I-117, 1-(1H-1,3-benzodiazol-2-yl)-3-(2-chlorophenyl)-4-[2-(4-fluorophenyl)ethyl]-1H-pyrazol-5-ol], the pKd at HIV-1 NefNL4-3 is 5.77; on HIV-1 NefNL4-3 (setting [2]) it was 4.61.

On to `CC(C)(C)OC(=O)N1CCC(CCc2c(-c3cccc(S(C)(=O)=O)c3)nn(-c3cc(C(F)(F)F)n[nH]3)c2O)CC1` [Compound I-605], for which, in the data set on TZM-bl cell line, the “% Cell Viability” value amounted to 100%. In addition, the “Percent Viability @ 1 μM (TZM-bl cells)” value in the data set on TZM-bl cell line (setting [1]) was 106.0%.

As to `CCOC(=O)c1ccc(CCc2c(-c3ccccc3)nn(-c3cc(C(F)(F)F)n[nH]3)c2O)cc1` [Compound I-612], the “% Cell Viability” value in the data set with TZM-bl cell line came out at 100%. For the same molecule, the “Percent Viability @ 1 μM (TZM-bl cells)” value in the data set on TZM-bl cell line (setting [1]) is given as 100.7%.

Regarding `CC(C)(C)OC(=O)N1CCC(c2nn(-c3nc4ccccc4[nH]3)c(O)c2Cc2ccc(F)c(F)c2)CC1` [Compound I-203, tert-butyl 4-[1-(1H-1,3-benzodiazol-2-yl)-4-[(3,4-difluorophenyl)methyl]-5-hydroxy-1H-pyrazol-3-yl]piperidine-1-carboxylate], the pKd is 6.09 on HIV-1 NefNL4-3 and 4.34 on HIV-1 NefNL4-3 (setting [2]).

For `Oc1c(CCc2ccc(F)cc2)c(-c2cccc(Cl)c2)nn1-c1nc2ccccc2[nH]1` [Compound I-116, 1-(1H-1,3-benzodiazol-2-yl)-3-(3-chlorophenyl)-4-[2-(4-fluorophenyl)ethyl]-1H-pyrazol-5-ol], the pKd on HIV-1 NefNL4-3 was 5.70.

On to `CS(=O)(=O)c1ccc(-c2nn(-c3cc(C4CC4)n[nH]3)c(O)c2CCC2CCOCC2)cc1` [Compound I-607], for which, in the data set with TZM-bl cell line, the “Percent Viability @ 1 μM (TZM-bl cells)” value came to 100.0%.

On to `Oc1c(Cc2ccc(F)c(F)c2)c(C2CCN(CC(F)(F)F)CC2)nn1-c1nc2ccccc2[nH]1` [Compound I-1001, 1-(1H-1,3-benzodiazol-2-yl)-4-[(3,4-difluorophenyl)methyl]-3-[1-(2,2,2-trifluoroethyl)piperidin-4-yl]-1H-pyrazol-5-ol], for which the pKd was 6.30 on HIV-1 NefNL4-3 (Table 1, 2-site fit, second component, read-out: Nef NL4-3 Binding, SPR 1:1 or 2-site fitting KD2) and 6.59 at HIV-1 NefNL4-3 (setting [3]).

As for `Oc1c(CCc2ccc(F)cc2)c(-c2ccncc2)nn1-c1nc2ccccc2[nH]1` [Compound I-113, 1-(1H-1,3-benzodiazol-2-yl)-4-[2-(4-fluorophenyl)ethyl]-3-(pyridin-4-yl)-1H-pyrazol-5-ol], the pKd at HIV-1 NefNL4-3 is 5.47.

With `Oc1c(CCc2ccc(F)cc2)c(-c2ccccn2)nn1-c1nc2ccccc2[nH]1` [Compound I-109, 1-(1H-1,3-benzodiazol-2-yl)-4-[2-(4-fluorophenyl)ethyl]-3-(pyridin-2-yl)-1H-pyrazol-5-ol], the pKd at HIV-1 NefNL4-3 is 7.44.

Take `Fc1ccc(-c2c(CCc3ccccc3)cnn2-c2cc(C(F)(F)F)n[nH]2)cc1` [Compound I-1501]: in the data set with TZM-bl cell line, the “% Cell Viability” value came out at 97.9%.

With `Oc1c(CCc2ccc(F)cc2)c(CCCc2ccc(F)cc2)nn1-c1nc2ccccc2[nH]1` [Compound I-120, 1-(1H-1,3-benzodiazol-2-yl)-4-[2-(4-fluorophenyl)ethyl]-3-[3-(4-fluorophenyl)propyl]-1H-pyrazol-5-ol], the “Percent Viability @ 1 μM (TZM-bl cells)” value with TZM-bl cell line (human, 1 μM) is 89.1%. In addition, the inhibition at 1 µM in the data set on HIV-1NL4-3 is 70.1%.

For the molecule `CN1CCC(c2nn(-c3nc4ccccc4[nH]3)c(O)c2CCc2ccc(F)cc2)CC1` [Compound I-801, 1-(1H-1,3-benzodiazol-2-yl)-4-[2-(4-fluorophenyl)ethyl]-3-(1-methylpiperidin-4-yl)-1H-pyrazol-5-ol], the “Nef NL4-3 Binding, SPR 1:1 or 2-site fitting KD1” value (from here on “Nef NL4-3 Binding”) on HIV-1 NefNL4-3 (Table 1) is “No Interaction”.

Consider `CS(=O)(=O)N1CCC(c2nn(-c3nc4ccccc4[nH]3)c(O)c2CCc2ccc(F)cc2)CC1` [Compound I-743, 1-(1H-1,3-benzodiazol-2-yl)-4-[2-(4-fluorophenyl)ethyl]-3-(1-methanesulfonylpiperidin-4-yl)-1H-pyrazol-5-ol], for which the “Nef NL4-3 Binding” value on HIV-1 NefNL4-3 (Table 1) is recorded as “No Interaction”.

Take `Oc1c(CCc2ccc(F)c(Cl)c2)c(-c2cnccn2)nn1-c1nc2ccccc2[nH]1` [Compound I-112, 1-(1H-1,3-benzodiazol-2-yl)-4-[2-(3-chloro-4-fluorophenyl)ethyl]-3-(pyrazin-2-yl)-1H-pyrazol-5-ol]: the “Nef NL4-3 Binding” value on HIV-1 NefNL4-3 (Table 1) is listed as “No Interaction”.

Consider `CC(C)(C)OC(=O)N1CCCC(c2nn(-c3nc4ccccc4[nH]3)c(O)c2CCc2ccc(F)cc2)C1` (stereo not drawn) [Compound I-755, tert-butyl 3-[1-(1H-1,3-benzodiazol-2-yl)-4-[2-(4-fluorophenyl)ethyl]-5-hydroxy-1H-pyrazol-3-yl]piperidine-1-carboxylate], for which the figures for the pKd on HIV-1 NefNL4-3 (setting [4]) and at HIV-1 NefNL4-3 (setting [3]) were 6.53 and 7.28, respectively.

As for `O=S(=O)(c1c(Cl)nc2sccn12)N1CCC(c2nn(-c3nc4ccccc4[nH]3)c(O)c2CCc2ccc(F)cc2)CC1` [Compound I-752, 1-(1H-1,3-benzodiazol-2-yl)-3-[1-({6-chloroimidazo[2,1-b][1,3]thiazol-5-yl}sulfonyl)piperidin-4-yl]-4-[2-(4-fluorophenyl)ethyl]-1H-pyrazol-5-ol], the “Percent Viability @ 1 μM (TZM-bl cells)” value in the data set with TZM-bl cell line (human, 1 μM) turned out to be 97.7%. Besides, the inhibition at 1 µM in the data set with HIV-1NL4-3 worked out at 14.7%.

`Oc1c(CCc2ccc(F)cc2)c(-c2cnccn2)nn1-c1nc2ccccc2[nH]1` [Compound I-103, 1-(1H-1,3-benzodiazol-2-yl)-4-[2-(4-fluorophenyl)ethyl]-3-(pyrazin-2-yl)-1H-pyrazol-5-ol]: the pKd on HIV-1 NefNL4-3 (setting [5]) is 4.60.

For `Oc1c(CCc2ccc(F)cc2)c(C2CCCNC2)nn1-c1nc2ccccc2[nH]1` (stereo not drawn) [Compound I-502, 1-(1H-1,3-benzodiazol-2-yl)-4-[2-(4-fluorophenyl)ethyl]-3-(piperidin-3-yl)-1H-pyrazol-5-ol], the pKd was 5.35 at HIV-1 NefNL4-3 (setting [4]) and 5.61 at HIV-1 NefNL4-3 (setting [3]).

For the molecule `Cc1ccc(-c2nn(-c3nc4ccccc4[nH]3)c(O)c2CCc2ccc(F)cc2)cc1` [Compound I-104, 1-(1H-1,3-benzodiazol-2-yl)-4-[2-(4-fluorophenyl)ethyl]-3-(4-methylphenyl)-1H-pyrazol-5-ol], the pKd on HIV-1 NefNL4-3 is 5.63; on HIV-1 NefNL4-3 (setting [5]) it was 5.65.

On to `CC(=O)N1CCC(c2nn(-c3nc4ccccc4[nH]3)c(O)c2CCc2ccc(F)cc2)CC1` [Compound I-741, 1-{4-[1-(1H-1,3-benzodiazol-2-yl)-4-[2-(4-fluorophenyl)ethyl]-5-hydroxy-1H-pyrazol-3-yl]piperidin-1-yl}ethan-1-one], for which the figures for the pKd on HIV-1 NefNL4-3 and at HIV-1 NefNL4-3 (setting [2]) were 5.49 and 4.97, respectively.

For the molecule `Oc1c(CCc2ccc(F)c(F)c2)c(-c2cnccn2)nn1-c1nc2ccccc2[nH]1` [Compound I-111, 1-(1H-1,3-benzodiazol-2-yl)-4-[2-(3,4-difluorophenyl)ethyl]-3-(pyrazin-2-yl)-1H-pyrazol-5-ol], at HIV-1 NefNL4-3 (Table 1), the “Nef NL4-3 Binding” value was “No Interaction”.

For the molecule `Oc1c(CCc2ccc(F)cc2)c(C2CCNCC2)nn1-c1nc2ccccc2[nH]1` [Compound I-551, 1-(1H-1,3-benzodiazol-2-yl)-4-[2-(4-fluorophenyl)ethyl]-3-(piperidin-4-yl)-1H-pyrazol-5-ol], the “Nef NL4-3 Binding” value at HIV-1 NefNL4-3 (Table 1) was “No Interaction”.

As for `Oc1c(CCc2ccc(F)cc2)c(C2CCN(c3ncccn3)CC2)nn1-c1nc2ccccc2[nH]1` [Compound I-903, 1-(1H-1,3-benzodiazol-2-yl)-4-[2-(4-fluorophenyl)ethyl]-3-[1-(pyrimidin-2-yl)piperidin-4-yl]-1H-pyrazol-5-ol], at HIV-1 NefNL4-3 (setting [3]), the pKd is 5.00.

As to `Oc1c(CCc2ccncc2)c(-c2ccc(F)cc2)nn1-c1cc(C(F)(F)F)n[nH]1` [Compound I-620], in the data set on TZM-bl cell line, the “Percent Viability @ 1 μM (TZM-bl cells)” value stood at 100.0%.

For `O=C(OCc1ccccc1)N1CCC(c2nn(-c3nc4ccccc4[nH]3)c(O)c2Cc2ccc(F)c(F)c2)CC1` [Compound I-159, benzyl 4-[1-(1H-1,3-benzodiazol-2-yl)-4-[(3,4-difluorophenyl)methyl]-5-hydroxy-1H-pyrazol-3-yl]piperidine-1-carboxylate], on HIV-1 NefNL4-3, the pKd was 6.42.

As to `C=CCc1c(-c2ccc(C(F)(F)F)cc2)nn(-c2nc3ccccc3[nH]2)c1O` [Compound I-115, 1-(1H-1,3-benzodiazol-2-yl)-4-(prop-2-en-1-yl)-3-[4-(trifluoromethyl)phenyl]-1H-pyrazol-5-ol], the results for the pKd on HIV-1 NefNL4-3 and on HIV-1 NefNL4-3 (setting [2]) were 6.16 and 5.24, respectively.

Values taken from US20220380341A1, “INHIBITORS OF HIV-1 NEF FOR THE TREATMENT OF HIV DISEASE” (priority 2018, published 2022).
